# PMC12736791, “Co-Amorphous Systems Based on Dihydroquercetin and L-Lysine: Synthesis and Evaluation” (Pharmaceutics, 2025)
# Where two headings read alike, the source gives them in different places.
# Assays:
# [1] = set-up: method as in PMID 38139995; details: unmodified flavonoid; cited from earlier work
# 3T3 cells = test: Cytotoxicity assay (CCK-8), 3T3; format: cell-based, mouse
# Experimental: (§1) The cells were cultured in a medium containing DMEM:FBS:MEM:P/S in a ratio of 88:10:1:1 for Caco-2 (immortalized human colorectal adenocarcinoma) cells, and DMEM:FBS:P/S in a ratio of 89:10:1 for HUVEC (Human umbilical vein endothelial cells), 3T3 (mouse embryonic fibroblasts), and HEK293 (immortalized human embryonic kidney) cell lines. The cell cultures were maintained in 100 mm diameter Petri dishes within a CelMate® CO2 Incubator (Esco Lifesciences Group, Singapore) at 37 °C in an atmosphere containing 5% carbon dioxide and a relative humidity of 95%. The culture medium was refreshed every 24 h.
# (§2) To determine cell concentration, 1.0 mL of a trypsin solution containing EDTA, pre-warmed to 37 °C, was added to a Petri dish and incubated for up to 5 min. […] Subsequently, 100 µL of the solution was introduced into the Neubauer chamber XB.K.25 (QUIJING, Shanghai, China), and the concentration (cells/mL) was calculated using the following formula:(1) C=Ncell/Nsquares×[…], where Ncell represents the number of cells counted in the Neubauer chamber field and Nsquares represents the number of squares in the Neubauer chamber used for concentration calculation. […]
# (§3) The resulting solutions were analyzed on a microplate spectrophotometer Eon (BioTek, Winooski, VT, USA) at the maximum absorption of the reduced form of CCK-8, measured at 450 nm. […]
# [2] = Solubility studies, pharmacopoeial descriptive terms; format: physicochemical; details: in water at room temperature
# Experimental: The analysis was performed in accordance with the pharmacopoeial monograph of the State Pharmacopoeia of the Russian Federation XV, which is equivalent to the terms of the Pharmacopoeia of the Eurasian Economic Union and the European Pharmacopeia 11.5 at ambient conditions.
# A measured amount of solvent was added to the suspension of the substance, and the mixture was continuously shaken for 1 min and placed in a thermostat set at a temperature of 24.5–25.5 °C for 15 min. If the substance had not completely dissolved, the shaking process was repeated for another minute, and the solution was kept in the thermostat for another 15 min period at the same temperature.
# HUVEC cells = test: Cytotoxicity assay (CCK-8), HUVEC; format: cell-based, human; details: 24 h
# Experimental: as §1, §2, §3
# Caco-2 cells = test: Cytotoxicity assay (CCK-8), Caco-2; format: cell-based, human; details: Caco-2, 24 h
# Experimental: as §1, §2, §3
# HEK293 cells = test: Cytotoxicity assay (CCK-8), HEK293; format: cell-based, human; details: HEK293, 24 h
# Experimental: as §1, §2, §3
# [3] = set-up: method as in earlier work; details: water, room temperature; European Pharmacopoeia 11.5; cited from earlier work
smiles,measurement,setting,value
O=c1c(-c2ccc(O)cc2)coc2cc(O)cc(O)c12 [genistein],Solubility of genistein,[1],0.05 ± 0.01 µg/mL
"O=C1c2c(O)cc(O)cc2OC(c2ccc(O)c(O)c2)C1O (centres unmarked) [DHQraw, 2,3-dihydro-3,5,7-trihydroxy-2-(3,4-dihydroxyphenyl)-4H-1-benzopyran-4-one]",IC50,"3T3 cells; Mus musculus, NIH3T3, 3T3, 24 h, read-out: IC50",96 µg/mL
same,Solubility (pharmacopoeial descriptive term),[2],very slightly soluble
same,IC50,"HUVEC cells; Homo sapiens, read-out: IC50",88 µg/mL
same,IC50,"Caco-2 cells; Homo sapiens, read-out: IC50",65 µg/mL
same,IC50,"HEK293 cells; Homo sapiens, read-out: IC50",39 µg/mL
same,Solubility (pharmacopoeial descriptive term),[3],very slightly soluble
NCCCC[C@H](N)C(=O)O [LYSlyo],IC50,"3T3 cells; 3T3, 24 h",above the maximum concentration
same,IC50,HUVEC cells,826 µg/mL
same,IC50,Caco-2 cells,538 µg/mL
same,IC50,HEK293 cells,1490 µg/mL
